pIC50: −log10 of the molar value.
Key:
PTRGER4 (EP4) = PTRGER4 (EP4) (Homo sapiens (Human), UniProt P35408); assay: hEP4 b-arrestin assay (PathHunter HEK 293 PTGER4 b-arrestin cells); assay type: cell-based; conditions: hEP4 b-arrestin assay (values without asterisk)
How it was run: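 Stably transfected HEK293 cells carrying EP4–ProLink and β-arrestin 2–EA (β-gal fragment complementation), pre-incubated with compound 15 min at 37 °C, then stimulated with PGE2 (20 nM final) for 120 min at 37 °C. Chemiluminescence read after 1 h detection reagent at room temperature; activity per concentration expressed as percent of DMSO control.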

PTGER2 (EP2) = PTGER2 (EP2) (Homo sapiens (Human), UniProt P43116); assay: hEP2 b-arrestin assay (PathHunter HEK 293 PTGER2 b-arrestin cells); assay type: cell-based; conditions: hEP2 b-arrestin assay (values without asterisk)
How it was run: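 HEK293 cells expressing ProLink-tagged EP2 and EA-fused β-arrestin 2 (enzyme fragment complementation) were seeded 24 h, pre-incubated with compound 15 min at 37 °C, then stimulated with 5 μM PGE2 (final) for 120 min.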

PTRGER4 (EP4), sequence (P35408 whole entry, looked up, the tested form may be a part): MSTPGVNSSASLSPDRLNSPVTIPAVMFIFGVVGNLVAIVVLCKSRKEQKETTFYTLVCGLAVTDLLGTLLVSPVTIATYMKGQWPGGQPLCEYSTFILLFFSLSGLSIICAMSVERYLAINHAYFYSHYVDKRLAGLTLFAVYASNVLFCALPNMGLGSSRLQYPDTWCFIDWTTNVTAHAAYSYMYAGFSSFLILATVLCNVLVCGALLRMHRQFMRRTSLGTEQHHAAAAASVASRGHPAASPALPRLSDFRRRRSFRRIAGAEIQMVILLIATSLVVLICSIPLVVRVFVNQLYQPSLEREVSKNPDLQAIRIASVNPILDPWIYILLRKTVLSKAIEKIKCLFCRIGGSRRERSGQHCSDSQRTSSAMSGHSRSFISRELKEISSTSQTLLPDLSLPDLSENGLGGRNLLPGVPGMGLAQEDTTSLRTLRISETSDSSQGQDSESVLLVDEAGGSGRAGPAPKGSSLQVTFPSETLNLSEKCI
PTGER2 (EP2), sequence (P43116 whole entry, the tested form may be a part): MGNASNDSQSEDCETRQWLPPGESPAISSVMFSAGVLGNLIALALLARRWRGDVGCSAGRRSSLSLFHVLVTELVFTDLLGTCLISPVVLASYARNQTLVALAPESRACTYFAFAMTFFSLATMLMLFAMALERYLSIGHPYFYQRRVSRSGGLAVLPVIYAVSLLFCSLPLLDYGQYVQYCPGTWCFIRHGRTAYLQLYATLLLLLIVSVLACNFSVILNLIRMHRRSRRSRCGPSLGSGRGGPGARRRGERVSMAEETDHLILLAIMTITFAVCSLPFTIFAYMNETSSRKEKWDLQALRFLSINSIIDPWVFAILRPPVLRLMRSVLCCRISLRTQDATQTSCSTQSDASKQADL

SMILES	pIC50 (PTRGER4 (EP4))	pIC50 (PTGER2 (EP2))
CCCCOc1cc(-c2cc(NCCn3c(C#N)cc4c(OC)ccc(F)c43)ncn2)ccc1C(=O)O [Example 872, 2-Butoxy-4-{6-[2-(2-cyano-7-fluoro-4-methoxy-indol-1-yl)-ethylamino]-pyrimidin-4-yl}-benzoic acid]	7.74	7.92
CCCCOc1cc(-c2cc(NCCn3c(C)cc4c(OC)cc(F)c(F)c43)ncn2)ccc1C(=O)O [Example 878, 2-Butoxy-4-{6-[2-(6,7-difluoro-4-methoxy-2-methyl-indol-1-yl)-ethylamino]-pyrimidin-4-yl}-benzoic acid]	7.66	9.00
Cc1cccc2c1cc(C)n2CCNc1cc(-c2cc(OC(C)C)c(C(=O)O)s2)ncn1 [Example 879, 5-{6-[2-(2,4-Dimethyl-indol-1-yl)-ethylamino]-pyrimidin-4-yl}-3-isopropoxy-thiophene-2-carboxylic acid]	7.44	8.40
CCOc1cc(-c2cc(NCCn3c(C)cc4c(OC)cccc43)ncn2)ccc1-c1noc(=O)[nH]1 [Example 881, 3-(2-Ethoxy-4-{6-[2-(4-methoxy-2-methyl-indol-1-yl)-ethylamino]-pyrimidin-4-yl}-phenyl)-[1,2,4]oxadiazol-5(4H)-one]	7.39	8.30
CCOc1cc(-c2cc(NCCn3c(C)cc4c(OC)cc(F)cc43)ncn2)ccc1NCC(=O)O [Example 882, (2-Ethoxy-4-{6-[2-(6-fluoro-4-methoxy-2-methyl-indol-1-yl)-ethylamino]-pyrimidin-4-yl}-phenylamino)-acetic acid]	7.26	7.96
CCOc1cc(-c2cc(NCCn3c(C)cc4c(Cl)c(F)cc(Cl)c43)ncn2)sc1C(=O)O [Example 883, 5-{6-[2-(4,7-Dichloro-5-fluoro-2-methyl-indol-1-yl)-ethylamino]-pyrimidin-4-yl}-3-ethoxy-thiophene-2-carboxylic acid]	7.20	8.15
CCCCOc1cc(-c2cc(NCCn3c(C)cc4c(OC)cc(Cl)c(F)c43)ncn2)ccc1C(=O)O [Example 884, 2-Butoxy-4-{6-[2-(6-chloro-7-fluoro-4-methoxy-2-methyl-indol-1-yl)-ethylamino]-pyrimidin-4-yl}benzoic acid]	7.08	8.00
CCOc1cc(-c2cc(NCCn3c(C)cc4c(OC)c(F)cc(Cl)c43)ncn2)sc1C(=O)O [Example 885, 5-{6-[2-(7-Chloro-5-fluoro-4-methoxy-2-methyl-indol-1-yl)-ethylamino]-pyrimidin-4-yl}-3-ethoxy-thiophene-2-carboxylic acid]	7.05	7.40
COc1cc(-c2cc(NCCn3c(C)cc4c(OC)ccc(F)c43)ncn2)ccc1CC(=O)O [Example 886, (4-{6-[2-(7-Fluoro-4-methoxy-2-methyl-indol-1-yl)-ethylamino]-pyrimidin-4-yl}-2-methoxy-phenyl)-acetic acid]	6.90	7.38
COc1ccc(F)c2c1cc(C#N)n2CCNc1cc(-c2ccc(C(F)(F)C(=O)O)cc2)ncn1 [Example 887, (4-{6-[2-(2-Cyano-7-fluoro-4-methoxy-indol-1-yl)-ethylamino]-pyrimidin-4-yl}-phenyl)-difluoro-acetic acid]	6.75	7.05
COc1ccc(F)c2c1cc(C)n2CCNc1cc(-c2ccc(C(=O)O)c(C#N)c2)ncn1 [Example 888, 2-Cyano-4-{6-[2-(7-fluoro-4-methoxy-2-methyl-indol-1-yl)-ethylamino]-pyrimidin-4-yl}-benzoic acid]	6.33	7.39
CCOc1cc(-c2cc(NCCn3c(C#N)cc4c(C)c(F)c(F)cc43)ncn2)ccc1OCC(=O)O [Example 893, (4-{6-[2-(2-Cyano-5,6-difluoro-4-methyl-indol-1-yl)-ethylamino]-pyrimidin-4-yl}-2-ethoxy-phenoxy)-acetic acid]	6.93	7.38
CCOc1cc(-c2cc(NCCn3c(C#N)cc4c(C)c(F)c(F)cc43)ncn2)ccc1NCC(=O)O [Example 895, (4-{6-[2-(2-Cyano-5,6-difluoro-4-methyl-indol-1-yl)-ethylamino]-pyrimidin-4-yl}-2-ethoxy-phenylamino)-acetic acid]	7.18	7.70
CCOC(=O)Cc1ccc(-c2cc(NCCn3c(C)cc4c(OC)ccc(F)c43)ncn2)cc1 [Example 897, (4-{6-[2-(7-Fluoro-4-methoxy-2-methyl-indol-1-yl)-ethylamino]-pyrimidin-4-yl}-phenyl)-acetic acid ethyl ester]	6.34	6.42

Continued by rising pIC50 (PTRGER4 (EP4)), values first:

pIC50 (PTRGER4 (EP4))	pIC50 (PTGER2 (EP2))	SMILES
7.46	9.00	CCOc1cc(-c2cc(NCCn3c(C#N)cc4c(Cl)cc(Cl)cc43)ncn2)sc1C(=O)O [Example 889, 5-{6-[2-(4,6-Dichloro-2-cyano-indol-1-yl)-ethylamino]-pyrimidin-4-yl}-3-ethoxy-thiophene-2-carboxylic acid]
7.47	8.30	CCOc1cc(-c2cc(NCCn3c(C)cc4c(C)ccc(F)c43)ncn2)ccc1NCC(=O)O [Example 877, (2-Ethoxy-4-{6-[2-(7-fluoro-2,4-dimethyl-indol-1-yl)-ethylamino]-pyrimidin-4-yl}-phenylamino)-acetic acid]
7.47	8.70	CCOc1cc(-c2cc(NCCn3c(C#N)cc4cccc(F)c43)ncn2)ccc1NCC(=O)O [Example 896, (4-{6-[2-(2-Cyano-7-fluoro-indol-1-yl)-ethylamino]-pyrimidin-4-yl}-2-ethoxy-phenylamino)-acetic acid]
7.49	8.40	CCOc1cc(-c2cc(NCCn3c(C#N)c(F)c4ccccc43)ncn2)sc1C(=O)O [Example 876, 5-{6-[2-(2-Cyano-3-fluoro-indol-1-yl)-ethylamino]-pyrimidin-4-yl}-3-ethoxy-thiophene-2-carboxylic acid]
7.59	8.40	CCOc1cc(-c2cc(NCCn3c(C)c(F)c4ccccc43)ncn2)sc1C(=O)O [Example 875, 3-Ethoxy-5-{6-[2-(3-fluoro-2-methyl-indol-1-yl)-ethylamino]-pyrimidin-4-yl}-thiophene-2-carboxylic acid]
7.62	9.00	CCOc1cc(-c2cc(NCCn3c(C#N)cc4cccc(F)c43)ncn2)sc1C(=O)O [Example 892, 5-{6-[2-(2-Cyano-7-fluoro-indol-1-yl)-ethylamino]-pyrimidin-4-yl}-3-ethoxy-thiophene-2-carboxylic acid]
7.64	8.70	CCOc1cc(-c2cc(NCCn3c(C#N)cc4c(C)c(F)c(F)cc43)ncn2)sc1C(=O)O [Example 890, 5-{6-[2-(2-Cyano-5,6-difluoro-4-methyl-indol-1-yl)-ethylamino]-pyrimidin-4-yl}-3-ethoxy-thiophene-2-carboxylic acid]
7.72	8.40	COc1ccc(F)c2c1cc(C)n2CCNc1cc(-c2ccc(O)c(OC(F)(F)F)c2)ncn1 [Example 874, 4-{6-[2-(7-Fluoro-4-methoxy-2-methyl-indol-1-yl)-ethylamino]-pyrimidin-4-yl}-2-trifluoromethoxy-phenol]
7.74	7.11	CCOc1cc(-c2cc(NCCn3c(C#N)cc4c(OC)ccc(F)c43)ncn2)ccc1CC(=O)O [Example 873, (4-{6-[2-(2-Cyano-7-fluoro-4-methoxy-indol-1-yl)-ethylamino]-pyrimidin-4-yl}-2-ethoxy-phenyl)-acetic acid]
7.80	8.70	CCOc1cc(-c2cc(NCCn3c(C)cc4c(OC)cc(Cl)cc43)ncn2)sc1C(=O)O [Example 871, 5-{6-[2-(6-Chloro-4-methoxy-2-methyl-indol-1-yl)-ethylamino]-pyrimidin-4-yl}-3-ethoxy-thiophene-2-carboxylic acid]
7.92	8.10	CCOc1cc(-c2cc(NCCn3c(C#N)cc4c(OC)cccc43)ncn2)ccc1OCC(=O)O [Example 870, (4-{6-[2-(2-Cyano-4-methoxy-indol-1-yl)-ethylamino]-pyrimidin-4-yl}-2-ethoxy-phenoxy)-acetic acid]
8.10	8.70	COc1cc(Cl)cc2c1cc(C)n2CCNc1cc(-c2cc(OC(C)C)c(C(=O)O)s2)ncn1 [Example 869, 5-{6-[2-(6-Chloro-4-methoxy-2-methyl-indol-1-yl)-ethylamino]-pyrimidin-4-yl}-3-isopropoxy-thiophene-2-carboxylic acid]
8.15	9.00	CCOc1cc(-c2cc(NCCn3c(C)cc4c(Cl)cc(Cl)c(F)c43)ncn2)sc1C(=O)O [Example 868, 5-{6-[2-(4,6-Dichloro-7-fluoro-2-methyl-indol-1-yl)-ethylamino]-pyrimidin-4-yl}-3-ethoxy-thiophene-2-carboxylic acid]
8.22	8.10	COc1ccc(F)c2c1cc(C#N)n2CCNc1cc(-c2ccc(O)c(Cl)c2)ncn1 [Example 867, 1-{2-[6-(3-Chloro-4-hydroxy-phenyl)-pyrimidin-4-ylamino]-ethyl}-7-fluoro-4-methoxy-1H-indole-2-carbonitrile]
8.30	8.10	COc1ccc(F)c2c1cc(C#N)n2CCNc1cc(-c2ccc(O)c(OC(F)(F)F)c2)ncn1 [Example 866, 7-Fluoro-1-{2-[6-(4-hydroxy-3-trifluoromethoxy-phenyl)-pyrimidin-4-ylamino]-ethyl}-4-methoxy-1H-indole-2-carbonitrile]
8.52	8.22	CCOc1cc(-c2cc(NCCn3c(C#N)cc4c(C)ccc(F)c43)ncn2)sc1C(=O)O [Example 891, 5-{6-[2-(2-Cyano-7-fluoro-4-methyl-indol-1-yl)-ethylamino]-pyrimidin-4-yl}-3-ethoxy-thiophene-2-carboxylic acid]
